{
  "source": "ChEMBL document CHEMBL4673362",
  "about": "“Design, synthesis, and biological evaluation of 2,6,7-substituted pyrrolo[2,3-d]pyrimidines as cyclin dependent kinase inhibitor in pancreatic cancer cells” (Bioorg Med Chem Lett, 2021)",
  "key": {"[1]": {"test_system": "MIA PaCa-2", "assay": "Antiproliferative activity against human MIA PaCa-2 cells assessed as inhibition of cell growth by MTT assay", "format": "functional, cell-based"}, "[2]": {"test_system": "MIA PaCa-2", "assay": "Cell cycle arrest in human MIA PaCa-2 cells assessed as accumulation at S phase at 1.6 uM (reference value: 45.27 %)", "format": "functional"}, "[3]": {"test_system": "MIA PaCa-2", "assay": "Cell cycle arrest in human MIA PaCa-2 cells assessed as accumulation at G2 phase at 2.5 uM (reference value: 10.64 %)", "format": "functional"}, "[4]": {"test_system": "MIA PaCa-2", "assay": "Potency index, ratio of ribociclib IC50 to test compound IC50 for antiproliferative activity against human MIA PaCa-2 cells by MTT assay", "format": "functional"}, "[5]": {"assay": "Solubility of the compound at pH 7.4", "format": "physicochemical", "details": "buffer"}, "[6]": {"test_system": "BXPC-3", "assay": "Antiproliferative activity against human BxPC-3 cells assessed as inhibition of cell growth by MTT assay", "format": "functional, cell-based"}, "[7]": {"test_system": "MIA PaCa-2", "assay": "Antiproliferative activity against human MIA PaCa-2 cells assessed as inhibition of cell proliferation at 0.5 uM in presence of 10 to 20 nM PI3K/mTOR inhibitor, BEZ235", "format": "functional, cell-based"}, "[8]": {"assay": "Permeability of the compound at pH 7.4 by PAMPA", "format": "ADME", "details": "read-out: permeability"}, "[9]": {"biological_target": "Mitogen-activated protein kinase kinase kinase 9 (Homo sapiens) (UniProt P80192)", "sequence (P80192 whole entry, looked up)": "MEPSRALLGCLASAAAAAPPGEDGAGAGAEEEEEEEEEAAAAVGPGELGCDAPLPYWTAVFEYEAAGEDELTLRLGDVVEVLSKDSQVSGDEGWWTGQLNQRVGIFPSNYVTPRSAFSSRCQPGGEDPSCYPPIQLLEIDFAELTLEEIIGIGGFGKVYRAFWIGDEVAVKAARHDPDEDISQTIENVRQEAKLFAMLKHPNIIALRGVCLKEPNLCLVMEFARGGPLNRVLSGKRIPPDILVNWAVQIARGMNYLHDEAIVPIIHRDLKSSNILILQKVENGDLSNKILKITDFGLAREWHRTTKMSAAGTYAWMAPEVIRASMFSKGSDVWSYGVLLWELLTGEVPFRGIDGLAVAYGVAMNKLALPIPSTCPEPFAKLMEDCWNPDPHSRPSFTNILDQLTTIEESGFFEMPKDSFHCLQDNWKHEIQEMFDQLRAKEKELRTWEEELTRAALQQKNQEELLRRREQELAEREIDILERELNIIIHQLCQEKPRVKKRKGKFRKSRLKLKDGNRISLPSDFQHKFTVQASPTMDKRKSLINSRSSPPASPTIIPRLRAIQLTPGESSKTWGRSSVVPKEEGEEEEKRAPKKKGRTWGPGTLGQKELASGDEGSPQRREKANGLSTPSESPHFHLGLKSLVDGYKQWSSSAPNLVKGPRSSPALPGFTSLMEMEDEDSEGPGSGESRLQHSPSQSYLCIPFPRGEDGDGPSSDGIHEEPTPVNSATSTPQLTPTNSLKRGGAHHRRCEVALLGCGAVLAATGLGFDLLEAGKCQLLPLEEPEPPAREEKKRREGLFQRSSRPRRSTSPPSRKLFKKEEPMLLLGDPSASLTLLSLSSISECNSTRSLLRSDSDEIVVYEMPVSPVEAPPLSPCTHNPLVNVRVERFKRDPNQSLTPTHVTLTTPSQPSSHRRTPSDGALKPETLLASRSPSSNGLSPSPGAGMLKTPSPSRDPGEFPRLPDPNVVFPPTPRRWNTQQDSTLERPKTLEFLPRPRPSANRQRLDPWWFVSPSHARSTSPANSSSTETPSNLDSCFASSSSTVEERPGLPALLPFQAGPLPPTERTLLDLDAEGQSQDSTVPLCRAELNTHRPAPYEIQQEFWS", "assay": "Inhibition of human MLK1 at 1 uM relative to control"}, "[10]": {"test_system": "MIA PaCa-2", "assay": "Cell cycle arrest in human MIA PaCa-2 cells assessed as accumulation at S phase at 2.5 uM (reference value: 45.27 %)", "format": "functional"}, "[11]": {"assay": "Metabolic stability in human liver microsomes assessed as half life", "format": "ADME, Microsome"}, "[12]": {"test_system": "MIA PaCa-2", "assay": "Cell cycle arrest in human MIA PaCa-2 cells assessed as accumulation at G1 phase at 2.5 uM (reference value: 44.09 %)", "format": "functional"}, "[13]": {"test_system": "MIA PaCa-2", "assay": "Cell cycle arrest in human MIA PaCa-2 cells assessed as accumulation at G1 phase", "format": "functional, cell-based", "details": "dose 0.8-2.5 µM"}, "[14]": {"test_system": "MIA PaCa-2", "assay": "Cell cycle arrest in human MIA PaCa-2 cells assessed as accumulation at G1 phase at 0.8 uM (reference value: 44.09 %)", "format": "functional"}, "[15]": {"biological_target": "Calcium/calmodulin-dependent protein kinase kinase 1 (Homo sapiens) (UniProt Q8N5S9)", "sequence (Q8N5S9 whole entry, looked up)": "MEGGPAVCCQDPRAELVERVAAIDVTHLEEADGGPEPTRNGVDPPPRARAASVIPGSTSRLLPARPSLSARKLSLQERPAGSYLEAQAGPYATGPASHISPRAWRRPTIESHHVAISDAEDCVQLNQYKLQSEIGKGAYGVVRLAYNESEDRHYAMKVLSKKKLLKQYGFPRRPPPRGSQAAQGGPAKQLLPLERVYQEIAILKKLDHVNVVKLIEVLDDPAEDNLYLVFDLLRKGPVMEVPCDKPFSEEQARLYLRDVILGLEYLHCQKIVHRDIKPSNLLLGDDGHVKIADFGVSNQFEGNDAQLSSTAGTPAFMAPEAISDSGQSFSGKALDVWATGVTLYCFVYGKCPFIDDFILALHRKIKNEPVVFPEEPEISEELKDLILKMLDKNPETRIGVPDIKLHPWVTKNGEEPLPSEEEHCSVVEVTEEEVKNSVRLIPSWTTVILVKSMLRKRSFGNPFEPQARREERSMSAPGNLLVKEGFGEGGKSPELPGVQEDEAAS", "assay": "Inhibition of human CAMKKA at 1 uM relative to control"}, "[16]": {"test_system": "MIA PaCa-2", "assay": "Cell cycle arrest in human MIA PaCa-2 cells assessed as accumulation at G2 phase at 1.6 uM (reference value: 10.64 %)", "format": "functional"}, "[17]": {"assay": "Permeability of the compound at pH 5.0 by PAMPA", "format": "ADME", "details": "read-out: permeability"}, "[18]": {"biological_target": "Cyclin-dependent kinase 4 (Homo sapiens) (UniProt P11802)", "sequence (P11802 whole entry)": "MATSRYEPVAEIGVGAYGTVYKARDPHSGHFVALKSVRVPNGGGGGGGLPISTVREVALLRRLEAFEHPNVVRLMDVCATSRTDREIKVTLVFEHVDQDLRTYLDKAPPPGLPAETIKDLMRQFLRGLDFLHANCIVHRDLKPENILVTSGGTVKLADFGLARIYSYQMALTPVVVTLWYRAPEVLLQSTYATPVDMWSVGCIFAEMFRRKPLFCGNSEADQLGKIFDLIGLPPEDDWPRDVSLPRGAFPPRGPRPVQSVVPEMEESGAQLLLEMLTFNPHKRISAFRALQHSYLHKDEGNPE", "assay": "Inhibition of CDK4 (unknown origin) at 1 uM"}, "[19]": {"biological_target": "Cyclin-dependent kinase 4/cyclin D1 (Homo sapiens) (UniProt P11802+P24385)", "assay": "Inhibition of human CDK4/cyclin D1 at 1 uM relative to control", "format": "protein-complex assay"}, "[20]": {"biological_target": "CDK6/cyclin D1 (Homo sapiens) (UniProt P24385+Q00534)", "assay": "Inhibition of human CDK6/cyclin D1 at 1 uM relative to control", "format": "protein-complex assay"}, "[21]": {"assay": "Metabolic stability in rat liver microsomes assessed as half life", "format": "ADME, Microsome"}, "[22]": {"test_system": "MIA PaCa-2", "assay": "Cell cycle arrest in human MIA PaCa-2 cells assessed as accumulation at G2 phase at 0.8 uM (reference value: 10.64 %)", "format": "functional"}, "[23]": {"biological_target": "Cyclin-dependent kinase 4/cyclin D1 (Homo sapiens, UniProt P11802)", "sequence (P11802 whole entry)": "as above", "sequence (P24385 whole entry, further chain)": "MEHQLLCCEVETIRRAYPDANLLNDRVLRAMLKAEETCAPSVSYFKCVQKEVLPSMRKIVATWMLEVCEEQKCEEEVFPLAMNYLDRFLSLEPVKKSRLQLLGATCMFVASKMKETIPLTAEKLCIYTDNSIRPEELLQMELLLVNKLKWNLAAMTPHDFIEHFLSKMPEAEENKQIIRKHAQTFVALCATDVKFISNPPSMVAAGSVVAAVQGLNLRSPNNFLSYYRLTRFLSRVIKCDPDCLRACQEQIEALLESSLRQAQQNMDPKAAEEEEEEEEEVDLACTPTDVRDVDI", "assay": "Inhibition of CDK4/cyclin D1 (unknown origin)", "format": "protein-complex assay"}, "[24]": {"test_system": "MIA PaCa-2", "assay": "Cell cycle arrest in human MIA PaCa-2 cells assessed as accumulation at G1 phase at 1.6 uM (reference value: 44.09 %)", "format": "functional"}, "[25]": {"biological_target": "Calcium/calmodulin-dependent protein kinase type 1 (Homo sapiens) (UniProt Q14012)", "sequence (Q14012 whole entry, looked up)": "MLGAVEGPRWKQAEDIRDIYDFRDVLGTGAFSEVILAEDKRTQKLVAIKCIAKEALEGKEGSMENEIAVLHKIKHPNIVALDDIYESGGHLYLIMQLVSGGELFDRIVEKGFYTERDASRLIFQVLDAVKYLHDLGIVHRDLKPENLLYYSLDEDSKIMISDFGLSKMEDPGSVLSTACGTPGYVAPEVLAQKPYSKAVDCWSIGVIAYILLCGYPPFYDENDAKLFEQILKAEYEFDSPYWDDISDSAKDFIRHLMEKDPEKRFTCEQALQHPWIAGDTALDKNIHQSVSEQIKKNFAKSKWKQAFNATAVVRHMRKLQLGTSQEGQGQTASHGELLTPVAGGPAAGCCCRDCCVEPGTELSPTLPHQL", "assay": "Inhibition of human CAMK1 at 1 uM relative to control"}, "[26]": {"biological_target": "CDK6/cyclin D1 (Homo sapiens, UniProt Q00534)", "sequence (P24385 whole entry)": "as the sequence (P24385 whole entry, further chain) above", "sequence (Q00534 whole entry)": "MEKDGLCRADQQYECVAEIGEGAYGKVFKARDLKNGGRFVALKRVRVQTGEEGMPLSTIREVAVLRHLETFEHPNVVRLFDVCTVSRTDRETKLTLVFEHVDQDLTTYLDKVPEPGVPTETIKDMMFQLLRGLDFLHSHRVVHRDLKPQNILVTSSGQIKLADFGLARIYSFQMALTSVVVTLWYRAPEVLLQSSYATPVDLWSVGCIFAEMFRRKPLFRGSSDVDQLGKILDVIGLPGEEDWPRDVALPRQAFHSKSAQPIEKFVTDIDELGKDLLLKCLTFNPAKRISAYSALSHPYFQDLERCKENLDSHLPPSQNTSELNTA", "assay": "Inhibition of CDK6/cyclin D1 (unknown origin)", "format": "protein-complex assay"}, "[27]": {"biological_target": "Tyrosine-protein kinase Fer (Homo sapiens) (UniProt P16591)", "sequence (P16591 whole entry, looked up)": "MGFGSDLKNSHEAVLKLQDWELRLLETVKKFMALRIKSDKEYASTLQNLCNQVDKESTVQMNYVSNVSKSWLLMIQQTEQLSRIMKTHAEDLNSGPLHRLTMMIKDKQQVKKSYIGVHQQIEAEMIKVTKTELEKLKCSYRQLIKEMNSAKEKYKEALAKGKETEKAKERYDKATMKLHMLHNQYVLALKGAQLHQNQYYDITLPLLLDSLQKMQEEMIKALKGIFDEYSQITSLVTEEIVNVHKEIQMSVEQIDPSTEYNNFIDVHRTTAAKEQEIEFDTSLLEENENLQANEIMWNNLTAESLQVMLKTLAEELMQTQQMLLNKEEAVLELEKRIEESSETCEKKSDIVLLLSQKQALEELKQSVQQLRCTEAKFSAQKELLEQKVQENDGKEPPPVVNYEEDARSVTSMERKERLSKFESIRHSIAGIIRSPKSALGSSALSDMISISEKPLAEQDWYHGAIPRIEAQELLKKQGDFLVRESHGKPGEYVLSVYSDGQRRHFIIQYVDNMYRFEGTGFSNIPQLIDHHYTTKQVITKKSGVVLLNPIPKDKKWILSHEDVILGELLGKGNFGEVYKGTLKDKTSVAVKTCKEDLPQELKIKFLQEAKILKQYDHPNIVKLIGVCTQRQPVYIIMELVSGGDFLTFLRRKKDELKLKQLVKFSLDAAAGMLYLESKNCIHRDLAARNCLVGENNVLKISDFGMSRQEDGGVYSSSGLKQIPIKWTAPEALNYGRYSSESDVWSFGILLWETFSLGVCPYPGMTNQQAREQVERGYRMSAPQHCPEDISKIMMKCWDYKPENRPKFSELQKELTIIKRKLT", "assay": "Inhibition of human FER at 1 uM relative to control"}, "[28]": {"test_system": "MIA PaCa-2", "assay": "Cell cycle arrest in human MIA PaCa-2 cells assessed as accumulation at S phase at 0.8 uM (reference value: 45.27 %)", "format": "functional"}, "[29]": {"biological_target": "Dual specificity protein kinase TTK (Homo sapiens) (UniProt P33981)", "sequence (P33981 whole entry)": "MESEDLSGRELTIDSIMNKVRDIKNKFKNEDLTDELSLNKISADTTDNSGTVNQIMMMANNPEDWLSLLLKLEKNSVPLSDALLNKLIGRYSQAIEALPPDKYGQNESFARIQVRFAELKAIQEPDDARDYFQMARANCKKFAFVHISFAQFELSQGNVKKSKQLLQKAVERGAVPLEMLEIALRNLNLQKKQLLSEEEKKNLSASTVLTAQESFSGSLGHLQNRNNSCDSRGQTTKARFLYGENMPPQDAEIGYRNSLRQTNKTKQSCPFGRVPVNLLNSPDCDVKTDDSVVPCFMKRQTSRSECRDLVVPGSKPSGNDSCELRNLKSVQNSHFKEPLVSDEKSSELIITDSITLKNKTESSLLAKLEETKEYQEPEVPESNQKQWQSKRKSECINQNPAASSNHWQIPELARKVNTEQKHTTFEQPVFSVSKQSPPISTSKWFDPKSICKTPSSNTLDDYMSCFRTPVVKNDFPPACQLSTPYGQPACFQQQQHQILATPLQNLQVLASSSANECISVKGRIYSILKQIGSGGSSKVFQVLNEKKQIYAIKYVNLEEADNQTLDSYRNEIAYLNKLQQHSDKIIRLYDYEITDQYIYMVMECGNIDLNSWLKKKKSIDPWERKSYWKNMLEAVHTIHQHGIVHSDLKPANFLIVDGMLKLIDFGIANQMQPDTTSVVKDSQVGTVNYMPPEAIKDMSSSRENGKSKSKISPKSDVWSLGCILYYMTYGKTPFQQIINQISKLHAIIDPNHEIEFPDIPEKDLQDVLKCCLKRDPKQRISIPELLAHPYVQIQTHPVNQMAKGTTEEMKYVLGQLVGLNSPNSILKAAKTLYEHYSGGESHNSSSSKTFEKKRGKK", "assay": "Inhibition of human TTK at 1 uM relative to control"}, "[30]": {"biological_target": "Cyclin-dependent kinase 6 (Homo sapiens) (UniProt Q00534)", "sequence (Q00534 whole entry)": "as the sequence (Q00534 whole entry) above", "assay": "Inhibition of CDK6 (unknown origin) at 1 uM"}, "[31]": {"biological_target": "CDK4/Cyclin D3 (Homo sapiens) (UniProt P11802+P30281)", "assay": "Inhibition of human CDK4/cyclin D3 at 1 uM relative to control", "format": "protein-complex assay"}, "[32]": {"test_system": "MIA PaCa-2", "assay": "Antiproliferative activity against human MIA PaCa-2 cells assessed as inhibition of cell proliferation at 1 uM in presence of PI3K/mTOR inhibitor, BEZ235", "format": "functional, cell-based"}},
  "note": "Activity calls are given as the source filed them. The rule behind the calls is not given here.",
  "data": [
    {"smiles": "COc1ccccc1NC(=O)c1cc2cnc(Nc3ccc(N4CCNCC4)cn3)nc2n1C1CCCC1", "values": [
      {"measurement": "IC50", "setting": "[1]", "result": 1830, "unit": "nM"},
      {"measurement": "Activity", "setting": "[2]", "result": 30.8, "unit": "%"},
      {"measurement": "Activity", "setting": "[3]", "result": 4.06, "unit": "%"},
      {"measurement": "Ratio IC50", "setting": "[4]", "result": 10},
      {"measurement": "solubility", "setting": "[5]", "result": 1.1, "unit": "µg/mL"},
      {"measurement": "IC50", "setting": "[6]", "result": 4120, "unit": "nM"},
      {"measurement": "Activity", "setting": "[7]", "result": "Active"},
      {"measurement": "Papp", "setting": "[8]", "result": 464, "unit": "×10⁻⁶ cm/s"},
      {"measurement": "inhibition", "setting": "[9]", "result": "> 80", "unit": "%"},
      {"measurement": "Activity", "setting": "[10]", "result": 21.63, "unit": "%"},
      {"measurement": "half-life", "setting": "[11]", "result": 1.21, "unit": "h"},
      {"measurement": "Activity", "setting": "[12]", "result": 74.31, "unit": "%"},
      {"measurement": "Activity", "setting": "[13]", "result": "Dose-dependent effect"},
      {"measurement": "Activity", "setting": "[14]", "result": 60, "unit": "%"},
      {"measurement": "inhibition", "setting": "[15]", "result": "> 80", "unit": "%"},
      {"measurement": "Activity", "setting": "[16]", "result": 3.69, "unit": "%"},
      {"measurement": "Papp", "setting": "[17]", "result": 517, "unit": "×10⁻⁶ cm/s"},
      {"measurement": "inhibition", "setting": "[18]", "result": "Active"},
      {"measurement": "inhibition", "setting": "[19]", "result": "> 80", "unit": "%"},
      {"measurement": "inhibition", "setting": "[20]", "result": "> 80", "unit": "%"},
      {"measurement": "half-life", "setting": "[21]", "result": "> 0.5", "unit": "h"},
      {"measurement": "Activity", "setting": "[22]", "result": 4.85, "unit": "%"},
      {"measurement": "IC50", "setting": "[23]", "result": 20.5, "unit": "nM"},
      {"measurement": "Activity", "setting": "[24]", "result": 65.48, "unit": "%"},
      {"measurement": "inhibition", "setting": "[25]", "result": "> 80", "unit": "%"},
      {"measurement": "IC50", "setting": "[26]", "result": 52.3, "unit": "nM"},
      {"measurement": "inhibition", "setting": "[27]", "result": "> 80", "unit": "%"},
      {"measurement": "Activity", "setting": "[28]", "result": 35.15, "unit": "%"},
      {"measurement": "inhibition", "setting": "[29]", "result": "> 80", "unit": "%"},
      {"measurement": "inhibition", "setting": "[30]", "result": "Active"},
      {"measurement": "inhibition", "setting": "[31]", "result": "> 80", "unit": "%"},
      {"measurement": "Activity", "setting": "[32]", "result": "Active"}
    ]}
  ]
}
